# According to paper PMC7520961, “Safety evaluation of the interchangeable use of robenacoxib in commercially-available tablets and solution for injection in cats” (BMC Veterinary Research, 2020):
# Tested on: cats
# Assay: Hematology, coagulation and urinalysis (target animal safety study)
# Type: in vivo, cat
# Conditions: for Absolute Punctate Reticulocyte (mean ± SD) / Basophils (mean ± SD) / Other Cells (mean ± SD) / Monocytes (mean ± SD) / Eosinophils (mean ± SD) / Neutrophils (mean ± SD) / Lymphocytes (mean ± SD) / Erythrocytes (mean ± SD) / Leukocytes (mean ± SD) / Hemoglobin (mean ± SD) / Prothrombin Time (mean ± SD) / APTT (mean ± SD) / MCH (mean ± SD) / Absolute Aggregate Reticulocyte (mean ± SD) / Hematocrit (mean ± SD) / MCHC (mean ± SD) / MCV (mean ± SD) / Platelets (mean ± SD) / Fibrinogen (mean ± SD): post-treatment, average of days 13 and 37; for Basophils (mean ± SD): reference range 0 - 0.03; for Other Cells (mean ± SD): reference range 0 - 0.05; for Monocytes (mean ± SD): reference range 0 - 0.81; for Eosinophils (mean ± SD): reference range 0 - 1.31, significant treatment x sex effect (p<0.1); for Neutrophils (mean ± SD): reference range 0 - 12.65; for Lymphocytes (mean ± SD): reference range 2.18 - 13.48; for Erythrocytes (mean ± SD): reference range 5.36 - 10.78; for Leukocytes (mean ± SD): reference range 6.3 - 27.2; for Hemoglobin (mean ± SD): reference range 7.5 - 14.4; for Prothrombin Time (mean ± SD): reference range 8.7 - 11; for APTT (mean ± SD): reference range 11.2 - 18.7; for MCH (mean ± SD): reference range 11.9 - 15.1; for Absolute Aggregate Reticulocyte (mean ± SD): reference range 12.9 - 106.6; for Hematocrit (mean ± SD): reference range 22.5 - 41.6; for MCHC (mean ± SD): reference range 30.4 - 38; for MCV (mean ± SD): reference range 34.3 - 47.5; for Platelets (mean ± SD): reference range 107 - 779; for Fibrinogen (mean ± SD): reference range 152 - 278
# Description: Buccal mucosal bleeding times (BMBT) were measured on all animals on Days − 5 and 36 following ECG examinations while the animals were sedated. The upper lip was everted and a Surgicutt incision device was used to create a small incision (approximately 1 mm in depth and 3.5 mm in length). Blood flow from the incision site was blotted using filter paper below the incision. The elapsed time from the triggering of the device until blood no longer appeared on the filter paper was recorded as the bleed time. Clinical pathology evaluations were conducted on all animals on Days − 13 and − 6 and prior to dosing on Days 13 and 37. Because reference values given by the laboratory were (slightly) different for males and females, they were combined (i.e. lower of the two lower bounds to higher of the two upper bounds) for the tables. Animals were fasted 8–12 hours overnight prior to blood collection. Blood samples (3.0 mL) were collected from the jugular vein into tubes containing K3EDTA for evaluation of hematology parameters, sodium citrate for evaluation of coagulation parameters, and serum separators with no anticoagulant for the clinical chemistry samples. Urine samples were collected on Days […], 13, and 37 by replacing the litter in the litter box with NoSorb® (Creative Science, LLC, Ballwin, MO, USA) for at least 16 hours. Hematology variables were determined using an Advia 120 or Advia 2120 (Siemens, Munich, Germany), light microscope, or sediplast column (Polymedco, NY, US). Coagulation variables were determined using a Stago Compact (Diagnostica Stago, Parsippany, NJ, US), clinical chemistry variables were determined using an Olympus AU2700 or AU640e (Olympus Diagnostics, Southall, UK), and urinalysis variables were determined using a Clinitek-500 or Atlas (Siemens, Munich, Germany), Reichert VET 360 (Reichert Technologies, Buffalo, New York, USA), or light microscope.
# Post-treatment values were analyzed using RMANCOVA, with treatment group, sex, time, and their interactions as fixed model effects and the pre-treatment value measured closest to dosing as a covariate. Repeated measurements in the same animal were modeled using a compound symmetry or heterogeneous compound symmetry correlation structure (for food consumption: autoregressive first-order or heterogeneous autoregressive first-order); the model with the smallest Akaike’s Information Criterion was selected for each outcome.
# If any of the interactions involving treatment was significant (p < 0.1 for the two-factor interactions or p < 0.05 for the three-factor interaction), it was inappropriate to evaluate the main or overall treatment effect independently of the interacting factor and, as such, treatment comparisons were conducted for each level of the interacting factor. If none of the interactions involving treatment were significant, overall treatment differences were assessed.
# [1] = 1X (oral ≥2.4, SC 2.0 mg/kg/day)
# [2] = 2X (oral ≥4.8, SC 4.0 mg/kg/day)
# [3] = 3X (oral ≥7.2, SC 6.0 mg/kg/day)
compound,measurement,setting,value
CCc1ccc(Nc2c(F)c(F)cc(F)c2F)c(CC(=O)O)c1 [robenacoxib],Absolute Punctate Reticulocyte (mean ± SD),[1],2277 ± 658 10^3/µL
same,Basophils (mean ± SD),[1],0.006 ± 0.011 10^3/µL
same,Other Cells (mean ± SD),[1],0.62 ± 0.95 10^3/µL
same,Monocytes (mean ± SD),[1],0.27 ± 0.22 10^3/µL
same,Eosinophils (mean ± SD),[1],1.08 ± 0.40 10^3/µL
same,Neutrophils (mean ± SD),[1],5.28 ± 1.75 10^3/µL
same,Lymphocytes (mean ± SD),[1],6.69 ± 2.61 10^3/µL
same,Erythrocytes (mean ± SD),[1],7.24 ± 0.88 10^6/µL
same,Leukocytes (mean ± SD),[1],13.95 ± 4.43 10^3/µL
same,Hemoglobin (mean ± SD),[1],9.96 ± 0.98 g/dL
same,Prothrombin Time (mean ± SD),[1],11.03 ± 0.62 s
same,APTT (mean ± SD),[1],23.35 ± 16.35 s
same,MCH (mean ± SD),[1],13.82 ± 0.81 pg
same,Absolute Aggregate Reticulocyte (mean ± SD),[1],4.02 ± 4.81 10^3/µL
same,Hematocrit (mean ± SD),[1],30.66 ± 3.36%
same,MCHC (mean ± SD),[1],32.53 ± 0.55 g/dL
same,MCV (mean ± SD),[1],42.49 ± 2.78 fL
same,Platelets (mean ± SD),[1],253.7 ± 157.1 10^3/µL
same,Fibrinogen (mean ± SD),[1],180.8 ± 37.0 mg/dL
same,Absolute Punctate Reticulocyte (mean ± SD),[2],1915 ± 702 10^3/µL
same,Basophils (mean ± SD),[2],0.010 ± 0.011 10^3/µL
same,Other Cells (mean ± SD),[2],0.30 ± 0.71 10^3/µL
same,Monocytes (mean ± SD),[2],0.28 ± 0.14 10^3/µL
same,Eosinophils (mean ± SD),[2],0.94 ± 0.52 10^3/µL
same,Neutrophils (mean ± SD),[2],5.73 ± 1.34 10^3/µL
same,Lymphocytes (mean ± SD),[2],6.16 ± 1.81 10^3/µL
same,Erythrocytes (mean ± SD),[2],7.58 ± 0.82 10^6/µL
same,Leukocytes (mean ± SD),[2],13.43 ± 3.10 10^3/µL
same,Hemoglobin (mean ± SD),[2],9.99 ± 1.06 g/dL
same,Prothrombin Time (mean ± SD),[2],10.77 ± 0.56 s
same,APTT (mean ± SD),[2],16.68 ± 2.52 s
same,MCH (mean ± SD),[2],13.21 ± 0.99 pg
same,Absolute Aggregate Reticulocyte (mean ± SD),[2],1.38 ± 4.14 10^3/µL
same,Hematocrit (mean ± SD),[2],30.17 ± 3.65%
same,MCHC (mean ± SD),[2],33.14 ± 0.65 g/dL
same,MCV (mean ± SD),[2],39.86 ± 3.11 fL
same,Platelets (mean ± SD),[2],334.7 ± 155.9 10^3/µL
same,Fibrinogen (mean ± SD),[2],180.3 ± 22.2 mg/dL
same,Absolute Punctate Reticulocyte (mean ± SD),[3],2129 ± 555 10^3/µL
same,Basophils (mean ± SD),[3],0.006 ± 0.007 10^3/µL
same,Other Cells (mean ± SD),[3],0.44 ± 0.92 10^3/µL
same,Monocytes (mean ± SD),[3],0.26 ± 0.15 10^3/µL
same,Eosinophils (mean ± SD),[3],1.10 ± 0.40 10^3/µL
same,Neutrophils (mean ± SD),[3],5.46 ± 1.04 10^3/µL
same,Lymphocytes (mean ± SD),[3],7.50 ± 2.64 10^3/µL
same,Erythrocytes (mean ± SD),[3],7.73 ± 0.88 10^6/µL
same,Leukocytes (mean ± SD),[3],14.76 ± 3.66 10^3/µL
same,Hemoglobin (mean ± SD),[3],10.13 ± 1.15 g/dL
same,Prothrombin Time (mean ± SD),[3],10.84 ± 0.46 s
same,APTT (mean ± SD),[3],16.83 ± 2.52 s
same,MCH (mean ± SD),[3],13.11 ± 0.65 pg
same,Absolute Aggregate Reticulocyte (mean ± SD),[3],1.45 ± 4.17 10^3/µL
same,Hematocrit (mean ± SD),[3],30.90 ± 3.81%
same,MCHC (mean ± SD),[3],32.80 ± 1.57 g/dL
same,MCV (mean ± SD),[3],40.03 ± 2.65 fL
same,Platelets (mean ± SD),[3],301.4 ± 173.8 10^3/µL
same,Fibrinogen (mean ± SD),[3],172.5 ± 16.3 mg/dL
same,coagulation or urinalysis values between groups,all groups during the study,no significant differences
